Each structure is given as a SMILES string.

Usually logD stands for lipophilicity at a set pH, counting ionised and neutral species. Read a high logD as higher lipophilicity.

The nature of the series: Lipophilicity by the octanol/water partition method.

In turn, `COCc1nnc(-c2ccc[n+]([O-])c2)n1-c1c(Cl)c(Cl)cc2[nH]c(=O)c(=O)[nH]c12` [Example 2, (-)-6,7-Dichloro-5-[3-methoxymethyl-5-(1-oxidopyridin-3-yl)-4H-1,2,4-triazol-4-yl]-2,3(1H,4H)-quinoxalinedione hydrate] gave a logD of -1.7.
